Key:
[1] = Learning speed, performing of conditional reflex and memory consolidation (overall); format: in vivo, rats and mice; settings: conditional reflex, memory consolidation, versus pyracetam
Procedure: The compound according to the present invention was also tested for the effect produced thereby on processes of learning and memorizing.
The study of the compound according to the present invention for the speed of learning and performing the produced conditioned reflux was effected in experiments on rats using the method of electrodefensive conditioned reflexes of avoidance.
In experiments on mice the compound according to the present invention was tested for the effects produced thereby on processes of memory consolidation according to the results of investigation of the conditional response of passive avoidance.

mice [2] = test: Toxicity and general effect; format: in vivo
Procedure: The study of toxicity and a general effect of the compound according to the present invention was effected on mice with a mass of 18-20 g upon an intraperitoneal administration of the compound according to the present invention in doses of from 100 to 1.500 mg/kg.

mice [3] = test: Acute histotoxic hypoxia (sodium nitroprusside): lifespan of mice; format: in vivo
Procedure: (§1) The antihypoxic effect of the compound according to the present invention was studied in comparison with pyracetam on various experimental models of hypoxic states in experiments on mice and rats. The compound according to the present invention and pyracetam were administered intraperitoneally in the form of an aqueous emulsion prepared with Tween-80.
The studies were carried out using a model of an acute histotoxic hypoxia.
An acute histotoxic hypoxia was induced by way of a subcutaneous injection of sodium nitroprusside in the dose of 20 mg/kg. This mode of administration results in a 100% death of mice in 15-25 minutes after administration of the preparation. The lifespan of the mice was adjudicated after administration of sodium nitroprusside against the background of the test compounds (the compound according to the present invention and pyracetam) which was recorded by the arrest of breathing and heart. In this series of experiments 40 animals altogether were used.

mice [4] = test: Lifespan of mice under acute hypoxic hypoxia with hypercapnia (sealed chamber); format: in vivo, mice (nondescript white male)
Procedure: as §1
Tests were carried out on a model of an acute hypoxic hypoxia with hypercapnia.
The tests were conducted using 540 nondescript while male mice with a mass of 20-22 g. Each mouse was separately placed into a sealed chamber (with the capacity of 250 ml) 60 minutes after administration of the compound according to the present invention in the doses of 50, 100, 250, 500 and 750 mg/kg. The control animals were issued with an isotonic solution of sodium chloride. The antihypoxic activity was assessed by the lifespan of the mice in the sealed chamber (in minutes).

[5] = Solubility and storage stability; format: physicochemical
mice [6] = test: Acute hypobaric hypoxia: height ceiling for mice (Hmax); format: in vivo, mice (male, tetrahybrids)
Procedure: as §1
The studies were carried out on a model of an acute hypobaric hypoxia.
An acute […] hypoxia was modelled in a flow-type barometric chamber at an ambient temperature of 17°-20° C. with absorption of carbon dioxide and water.
The test animals (male mice, tetrahybrids) with a mass of 15-22 g of the same generation were "lifted" (under simulation conditions) at the mean speed of 50 m/sec to the height of 11,000 m at which the lifespan (in minutes) for the same series of experiments was evaluated. Furthermore, the mice were discretely lifted at the same speed to the height of 10,000 m where they stayed for 1 minute and then to the height of 11,000 m, where they again were kept for 1 minute and so on, till their death for the determination of the height "ceiling", The animals' death was adjudicated by the occurrence of an agonal breathing against the background of convulsions. The total number of mice employed in the experiments was 200.
As the comparison preparation pracetam was used. The compound according to the present invention and pyracetam were administered one hour before the "lift".

rats' cerebral cortex = test: Acute repeating anoxia (asphyxial hypoxia): electrical activity of the cerebral cortex of rats; format: in vivo
Procedure: The studies were conducted on a model of an acute repeating anoxia.
The studies were carried out in experiments on rats with a mass of 180-200 g with nichrome electrodes in the brain (cerebral) cortex; after tracheostomy the animals were connected to the artificial-breathing apparatus. Anoxia was induced by repeatedly switching-off the breathing for 90, 120, 150 and 180 seconds with 10-minutes' intervals therebetween. Electrocardiogram and electrocorticogram were recorded. 53 rats altogether were used in the experiments. The antihypoxic activity of the compound according to the present invention in comparison with pyracetam was assessed by the following parameters:
I--time till the disappearance of a cortex electrical activity after discontinuation of oxygen supply;
II--time till the appearance of an electrocorticogram after renewal of breathing;
III--total time of electrical "silence" of the cortex
for each of the successive anoxiae.
The results of the experiments were statistically evaluated using Student's T-criterion.

[7] = prior art; cited from earlier work
[8] = 1st anoxia, 90 seconds, 250 mg/kg
[9] = 1st anoxia, 90 seconds, 1.000 mg/kg

NC(=S)CN1CCCC1=S [Compound of the present invention, 1-thiocarbamylmethylpyrrolidine-2-thione]
effective doses smaller than those of pyracetam [1]: 4-5 times | toxicity classification (mice [2]; based on LD50): low-toxic | dose with which suppression of a general state of the animals starts (mice [2]; mice, intraperitoneal): 250 mg/kg | lifespan of mice at an acute histotoxic hypoxia (mice [3]; 250 mg/kg): 24.2 ± 2.46 min | lifespan of mice at an acute histotoxic hypoxia, % (control = 100%) (mice [3]; 250 mg/kg): 124.1 ± 12.6% | lifespan of mice at an acute histotoxic hypoxia (mice [3]; 500 mg/kg): 32.2 ± 4.95 min | lifespan of mice at an acute histotoxic hypoxia, % (control = 100%) (mice [3]; 500 mg/kg): 165.5 ± 25.4% | superiority to pyracetam in effectiveness (mice [3]; 500 mg/kg versus pyracetam 500 and 1,000 mg/kg): 1.5 times | lifespan of mice under acute hypoxic hypoxia (mice [4]; 100 mg/kg i.p.): 56.3 min | lifespan of mice under acute hypoxic hypoxia (mice [4]; 250 mg/kg i.p.): 60.3 min | lifespan of mice under acute hypoxic hypoxia (mice [4]; 500 mg/kg i.p.): 95.2 min | extension of mice lifespan as compared to the control (mice [4]; 750 mg/kg): 4 times | increase of mice lifespan as compared to the control (mice [4]; 750 mg/kg): 324.5% | lifespan of mice under acute hypoxic hypoxia (mice [4]; 750 mg/kg i.p.): 119.2 min | minimal effective dose (mice [4]; Mus musculus, ip, read-out: dose beginning with which resistance to acute oxygen insufficiency is enhanced and lifespan extended): 100 mg/kg | solubility in N,N-dimethylformamide ([5]; N,N-dimethylformamide): soluble | solubility in ether, hexane ([5]; ether, hexane): insoluble | storage stability ([5]; storage): stable in storage | height ceiling for mice (Hmax) (mice [6]; 250 mg/kg): 14.0 ± 0.707 thous. m | elevation of the height ceiling as compared to the control and pyracetam (mice [6]; 500 mg/kg): 4,000 m | height ceiling for mice (Hmax) (mice [6]; 500 mg/kg): 15.57 ± 0.85 thous. m | Number of animals with retained electrocorticogram after the 1st anoxia (rats' cerebral cortex; 250 mg/kg): 44.0% | time of recovery of the functional capacity of the brain (rats' cerebral cortex; 250 mg/kg): considerably reduced | extension of the time till disappearance of an electrocorticogram (rats' cerebral cortex; 250 mg/kg, especially first and second anoxiae): ~2 times | I--time till the disappearance of a cortex electrical activity (rats' cerebral cortex; [8]): 84.3 ± 1.3 s | II--time till the appearance of an electrocorticogram after renewal of breathing (rats' cerebral cortex; [8]): 3.7 ± 1.5 s | III--total time of electrical "silence" of the cortex (rats' cerebral cortex; [8]): 8.9 ± 3.5 s | recovery of electrical activity of the brain after the 4th anoxia, effectiveness versus pyracetam (rats' cerebral cortex; versus pyracetam): 7 times | retention of the electrocorticogram after the first 90-seconds' anoxia, superiority to pyracetam (rats' cerebral cortex; versus pyracetam 1.000 mg/kg): 3 times

NC(=O)CN1CCCC1=O [Pyracetam, 1-carbamidomethylpyrrolidone-2, reference compound]
stimulative effect on the mechanisms of memory consolidation and performance of conditioned reflexes [7]: absence of a pronounced stimulative effect | lifespan of mice at an acute histotoxic hypoxia (mice [3]; 1.000 mg/kg (= 1,000)): 20.97 ± 1.31 min | lifespan of mice at an acute histotoxic hypoxia, % (control = 100%) (mice [3]; 1.000 mg/kg (= 1,000)): 107.6 ± 6.7% | lifespan of mice at an acute histotoxic hypoxia (mice [3]; 250 mg/kg): inactive | lifespan of mice at an acute histotoxic hypoxia (mice [3]; 500 mg/kg): 17.98 ± 1.49 min | lifespan of mice at an acute histotoxic hypoxia, % (control = 100%) (mice [3]; 500 mg/kg): 92.2 ± 7.62% | lifespan of mice under acute hypoxic hypoxia (mice [4]; 100 mg/kg i.p.): 27.4 min | lifespan of mice under acute hypoxic hypoxia (mice [4]; 250 mg/kg i.p.): 33.5 min | lifespan of mice under acute hypoxic hypoxia (mice [4]; 500 mg/kg i.p.): 39.6 min | lifespan of mice under acute hypoxic hypoxia (mice [4]; 750 mg/kg i.p.): 34.4 min | extension of mice lifespan as compared to the control (mice [4]; 2,000 mg/kg): 60% | lifespan of mice under acute hypoxic hypoxia (mice [4]; 2000 mg/kg i.p.): 45.0 min | lifespan of mice under acute hypoxic hypoxia (mice [4]; 2000 mg/kg i.p., listed as pyracetam): 45 min | lifespan of mice under acute hypoxic hypoxia (mice [4]; column 8, dose printed "100" mg/kg (between 750 and 2000), i.p.): 41.4 min | height ceiling for mice (Hmax) (mice [6]; 250 mg/kg): 10.96 ± 0.91 thous. m | height ceiling for mice (Hmax) (mice [6]; 500 mg/kg): 11.55 ± 0.62 thous. m | Number of animals with recovered electrocorticogram after the 4th anoxia (rats' cerebral cortex; 1,000 mg/kg): 14.3% | Number of animals with retained electrocorticogram after the 1st anoxia (rats' cerebral cortex; 1,000 mg/kg): 12.5% | Number of animals with recovered electrocorticogram after the 4th anoxia (rats' cerebral cortex; 1,000 mg/kg, listed as pyracetam): 15% | I--time till the disappearance of a cortex electrical activity (rats' cerebral cortex; [9]): 76.7 ± 4.8 s | II--time till the appearance of an electrocorticogram after renewal of breathing (rats' cerebral cortex; [9]): 5.3 ± 0.2 s | III--total time of electrical "silence" of the cortex (rats' cerebral cortex; [9]): 17.8 ± 4.9 s | I--time till the disappearance of a cortex electrical activity (rats' cerebral cortex; 2nd anoxia (column 6; 120 seconds), 1.000 mg/kg): 85.8 ± 7.3 s | II--time till the appearance of an electrocorticogram after renewal of breathing (rats' cerebral cortex; 2nd anoxia (column 7; 120 seconds), 1.000 mg/kg): 21.8 ± 6.9 s | III--total time of electrical "silence" of the cortex (rats' cerebral cortex; 2nd anoxia (column 8; 120 seconds), 1.000 mg/kg): 53.3 ± 12.0 s | I--time till the disappearance of a cortex electrical activity (rats' cerebral cortex; 3rd anoxia (column 9; 150 seconds), 1.000 mg/kg): 95.0 ± 16.3 s | II--time till the appearance of an electrocorticogram after renewal of breathing (rats' cerebral cortex; 3rd anoxia (column 10; 150 seconds), 1.000 mg/kg): 67.6 ± 42.I | III--total time of electrical "silence" of the cortex (rats' cerebral cortex; 3rd anoxia (column 11; 150 seconds), 1.000 mg/kg): 131.2 ± 53.8 s | I--time till the disappearance of a cortex electrical activity (rats' cerebral cortex; 4th anoxia (column 12; 180 seconds), 1.000 mg/kg): 79.4 ± 23.8 s

Source: patent publication US4839380A, “1-Thiocarbamoylmethylpyrrolidine-2-thione, medical compositions of, and anti-hypoxic and nootropic use thereof” (priority 1988, dated 1989)
